Test results published in patent publication US10570179B2, “Substituted urea depsipeptide analogs as activators of the CLPP endopeptidase” (priority 2016, dated 2020).
≈ marks a conversion by molar mass, not a printed value. Read-outs that look alike come from different tables or passages of the source. Numbered stars: 1 amine (or outer) side, 2 acyl side, 3 side chain; on linkers, the order of the positions; unused ones are H or OH. Bridge positions count the residues as written; N and C are the ends. Square brackets hold non-standard residues; d marks the D form. Peptide text beside a SMILES is read from it. * marks the point of attachment. Piperazine(2S-CO,4-Me) = CN1CCN[C@H](C(=O)O)C1; Phe(3,5-F2) = N[C@@H](Cc1cc(F)cc(F)c1)C(=O)O; NH(1-Me-indolin-5-yl) = CN1CCc2cc(N*)ccc21; Morpholine(3S-CO) = O=C(O)[C@@H]1COCCN1; Phe(3-Me) = Cc1cccc(C[C@H](N)C(=O)O)c1; NH(4-Cl-2-F-phenyl) = Fc1cc(Cl)ccc1N*; Pro(4R-Me) = C[C@H]1CN[C@H](C(=O)O)C1; Hyp = O=C(O)[C@@H]1C[C@@H](O)CN1; aThr = C[C@H](O)[C@H](N)C(=O)O; Pip = O=C(O)[C@@H]1CCCCN1; CO = O=C([*:1])[*:2]

Legend:
[1] = Cytotoxicity assay (CellTiter-Glo cell viability); assay type: cell-based; conditions: African green monkey
Protocol: Cytotoxicity was determined by determining the effect of compounds on cell viability. Vero (kidney epithelial cells; ATCC CCL-81) monolayers were trypsinized and 5000 cells/well were seeded (10-15% confluency) into white-wall, flat bottom 96 well microwell plates (Corning) using enriched Dulbecco's Modified Eagle's Medium (Hyclone: DMEM/High Glucose) containing 10% Fetal Bovine Serum (ATCC-30-2020). Plates were incubated overnight at 37° C. in the presence of 5% CO2. Drug-free media was then replaced with media containing serial dilutions of test compound or DMSO carrier. After an additional 72 hours of incubation, viability was indirectly measured using the CellTiter-Glo® Luminescent Cell Viability (Promega) assay. Assay plates were read at peak emission wavelength of 560 nm using a EnVision® Multilabel Plate Reader (Perkin Elmer) or PHERAstar FS Multilabel reader (BMG, Cary, N.C.). The concentration of test compounds that inhibited growth by 50% (IC50 value) was computed using nonlinear regression based fitting of inhibition curves using log [inhibitor] vs. response-variable slope (four parameters)—symmetrical equation, in GraphPad Prism version 6 [GraphPad Software, La Jolla, Calif. USA, www.graphpad.com]. For each experiment, compounds were tested in duplicate. IC50 values presented are the range of two biologically independent experiments.

Solubility determination = assay type: physicochemical; conditions: for solubility kinetic at 10 min: 22 °C, aqueous buffer, kinetic from dmso stock
Procedure, shortened: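 DMSO stock spiked into DPBS at 100 µM final, in triplicate, shaken 10 min, then centrifuged 20 min at 22 °C. Supernatant quantified by UPLC-UV and single-ion-recording MS against DMSO calibration standards (0.098–100 µM), using 1/x²-weighted linear regression.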

S. pneumoniae = experiment: Minimal inhibitory concentration, microbroth dilution; assay type: cell-based; conditions: Streptococcus pneumoniae, read-out: Minimal Inhibitory Concentrations (μM) S. pneumoniae
Procedure, shortened: (§1)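 Growth inhibition was scored visually after overnight aerobic culture at 37 °C in CLSI-style microdilution plates. Inocula contained about 10^5 cfu/mL, and compound concentrations descended in twofold steps from 200 μM.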

B. subtilis = experiment: as above; assay type: cell-based; conditions: Bacillus subtilis, read-out: Minimal Inhibitory Concentrations (μM) B. subtilis
Procedure, shortened: as §1

S. pyogenes = experiment: as above; assay type: cell-based; conditions: Streptococcus pyogenes, read-out: Minimal Inhibitory Concentrations (μM) S. pyogenes
Procedure, shortened: as §1

Plasma pharmacokinetics = assay type: in vivo, male BALB/c mice; conditions: male, BALB/c, mouse, in vivo, iv; for Vd: 10 mg/kg, Route i.v., read-out: Vss

Compound	IC50 at 72 h [1] [µM]	μsol (μM) (Solubility determination) [µM]	solubility kinetic at 10 min (Solubility determination) [µM]	MIC (S. pneumoniae; MIC) [µM]	MIC (B. subtilis; MIC) [µM]	MIC (S. pyogenes; MIC) [µM]	AUC(0-inf) (Plasma pharmacokinetics) [ng·h/mL]	AUC(0-t) (Plasma pharmacokinetics) [ng·h/mL]	C^0 (Plasma pharmacokinetics) [ng/mL]	clearance (Plasma pharmacokinetics) [mL/min/kg]	half-life (Plasma pharmacokinetics) [h]	Vd (Plasma pharmacokinetics) [L/kg]	IC50 at 72 h ([1]; Vero cells, 72 hours, read-out: Cytotoxicity IC50) [µM]	solubility kinetic at 10 min (Solubility determination; solubility in DPBS, 100 μM test samples, LCMS, read-out: LCMS) [µM]	μsol (μM) (Solubility determination; solubility) [µM]	μsol (μg/mL) (Solubility determination; solubility) [µg/mL]	MIC (S. pneumoniae) [µM]	MIC (B. subtilis) [µM]	MIC (S. pyogenes) [µM]
Cc1cccc(C[C@H](NC(=O)Nc2ccc(Cl)cc2F)C(=O)N[C@@H]2C(=O)N3CCC[C@H]3C(=O)N3CCN(C)C[C@H]3C(=O)N[C@@H](C)C(=O)N3C[C@H](C)C[C@H]3C(=O)O[C@H]2C)c1 [Compound 11, (S)-2-(3-(4-CHLORO-2-FLUOROPHENYL)UREIDO)-N-((6AS,12S,13S,15AS,17R,21S,23AS)-2,13,17,21-TETRAMETHYL-6,11,15,20,23-PENTAOXOOCTADECAHYDRO-2H,6H,11H,15H-PYRAZINO[2,1-I]DIPYRROLO[2,1-C:2′,1′-L][1]OXA[4,7,10,13]TETRAAZACYCLOHEXADECIN-12-YL)-3-(M-TOLYL)PROPANAMIDE] ({NH(4-Cl-2-F-phenyl)-CO}-[Phe(3-Me)][aThr]P[Piperazine(2S-CO,4-Me)]A[Pro(4R-Me)]; ester 2-C)	> 10	32.2 ± 1.4	43.2 ± 3.14 (≈ 36.3 µg/mL)	0.039 (≈ 0.0327 µg/mL)	0.078 (≈ 0.0655 µg/mL)	0.078 (≈ 0.0655 µg/mL)	5040	5000	9127.72	33.1	1.35	2.28							
Cc1cccc(C[C@H](NC(=O)Nc2ccc(Cl)cc2F)C(=O)N[C@H]2COC(=O)[C@@H]3C[C@@H](C)CN3C(=O)[C@H](C)NC(=O)[C@@H]3CCCCN3C(=O)[C@@H]3C[C@H](N)CN3C2=O)c1 [Compound 12, (S)—N-((2R,6S,8AS,14AS,16S,20S,23AS)-16-AMINO-2,6-DIMETHYL-5,8,14,19,23-PENTAOXOOCTADECAHYDRO-1H,5H,14H,19H-PYRIDO[2,1-I]DIPYRROLO[2,1-C:2′,1′-L][1]OXA[4,7,10,13]TETRAAZACYCLOHEXADECIN-20-YL)-2-(3-(4-CHLORO-2-FLUOROPHENYL)UREIDO)-3-(M-TOLYL)PROPANAMIDE]	> 50	24.7 ± 3.7	37.5 ± 13 (≈ 30.9 µg/mL)	0.156 (≈ 0.129 µg/mL)	1.25 (≈ 1.03 µg/mL)	0.313 (≈ 0.258 µg/mL)													
C[C@@H]1C[C@H]2C(=O)OC[C@H](NC(=O)[C@H](Cc3cc(F)cc(F)c3)NC(=O)Nc3ccc(Cl)cc3F)C(=O)N3CCC[C@H]3C(=O)N3CCN(C)C[C@H]3C(=O)N[C@@H](C)C(=O)N2C1 [Compound 34] ({NH(4-Cl-2-F-phenyl)-CO}-[Phe(3,5-F2)]SP[Piperazine(2S-CO,4-Me)]A[Pro(4R-Me)]; ester 2-C)	> 50	38.7 ± 8.7	53.6 ± 3.58 (≈ 45.4 µg/mL)	0.039 (≈ 0.033 µg/mL)	< 0.02	0.078 (≈ 0.0661 µg/mL)													
Cc1cccc(C[C@H](NC(=O)Nc2ccc(Cl)cc2F)C(=O)N[C@H]2COC(=O)[C@@H]3C[C@@H](C)CN3C(=O)[C@H](C)NC(=O)[C@@H]3CCCCN3C(=O)[C@@H]3CCCN3C2=O)c1 [Compound 8, (S)-2-(3-(4-CHLORO-2-FLUOROPHENYL)UREIDO)-N-((2R,6S,8AS,14AS,20S,23AS)-2,6-DIMETHYL-5,8,14,19,23-PENTAOXOOCTADECAHYDRO-1H,5H,14H,19H-PYRIDO[2,1-I]DIPYRROLO[2,1-C:2′,1′-L][1]OXA[4,7,10,13]TETRAAZACYCLOHEXADECIN-20-YL)-3-(M-TOLYL)PROPANAMIDE]	> 10	8.8 ± 0.7	2.79 ± 0.5 (≈ 2.26 µg/mL)	0.078 (≈ 0.0632 µg/mL)	0.156 (≈ 0.126 µg/mL)	0.156 (≈ 0.126 µg/mL)													
Cc1cccc(C[C@H](NC(=O)Nc2ccc(Cl)cc2F)C(=O)N[C@@H]2C(=O)N3C[C@H](O)C[C@H]3C(=O)N3CCCC[C@H]3C(=O)N[C@@H](C)C(=O)N3C[C@H](C)C[C@H]3C(=O)O[C@H]2C)c1 [Compound 6, (S)-2-(3-(4-CHLORO-2-FLUOROPHENYL)UREIDO)-N-((2R,6S,8AS,14AS,16R,20S,21S,23AS)-16-HYDROXY-2,6,21-TRIMETHYL-5,8,14,19,23-PENTAOXOOCTADECAHYDRO-1H,5H,14H,19H-PYRIDO[2,1-I]DIPYRROLO[2,1-C:2′,1′-L][1]OXA[4,7,10,13]TETRAAZACYCLOHEXADECIN-20-YL)-3-(M-TOLYL)PROPANAMIDE] ({NH(4-Cl-2-F-phenyl)-CO}-[Phe(3-Me)][aThr][Hyp][Pip]A[Pro(4R-Me)]; ester 2-C)	50.5 ± 3.8	13.9 ± 1.4	12.6 ± 0.3 (≈ 10.6 µg/mL)	0.039 (≈ 0.0328 µg/mL)	0.156 (≈ 0.131 µg/mL)	0.156 (≈ 0.131 µg/mL)	11900	11500	34296.43	14	2.82	1.02							
C[C@@H]1C[C@H]2C(=O)O[C@@H](C)[C@H](NC(=O)[C@H](Cc3cc(F)cc(F)c3)NC(=O)Nc3ccc4c(c3)CCN4C)C(=O)N3CCC[C@H]3C(=O)N3CCOC[C@H]3C(=O)N[C@@H](C)C(=O)N2C1 [Compound 32] ({NH(1-Me-indolin-5-yl)-CO}-[Phe(3,5-F2)][aThr]P[Morpholine(3S-CO)]A[Pro(4R-Me)]; ester 2-C)													2.87	71.5 ± 1.5 (≈ 60.8 µg/mL)	73.4 ± 3.4	62.5 ± 2.1	0.078 (≈ 0.0664 µg/mL)	0.313 (≈ 0.266 µg/mL)	0.156 (≈ 0.133 µg/mL)
